Values quoted from earlier work as cited in patent publication US20150182535A1, “Antimicrobial Composition for the Treatment of Methicillin-resistant Staphylococcus aureus” (priority 2014, published 2015).

Test system: humans

Row | Compound | toxicity (general statement in words) | safety relative to artemether | toxicity relative to chloroquinine
1 | C[C@H]1[C@H](N2CCS(=O)(=O)CC2)O[C@@H]2O[C@@]3(C)CC[C@H]4[C@H](C)CC[C@@H]1[C@@]24OO3 [Artemisone] | very low toxicity |  | 
2 | C[C@H]1[C@H](OC(=O)CCC(=O)O)O[C@@H]2O[C@@]3(C)CC[C@H]4[C@H](C)CC[C@@H]1[C@@]24OO3 [artesunate] |  | twice as safe | one-fiftieth
